Source: patent US20180318275A1, “COMBINATION THERAPY USING PI3K INHIBITOR AND MDM2 INHIBITOR” (Novartis AG, priority 2015, published 2018)

Test system: 5 TP53 wild type colorectal cancer cell lines
Experiment: Cell proliferation over the cell line panel, Example 2
Format: cell-based
Conditions: Example 2, panel of 5 lines, 13 nM-10 μM
Protocol: To test the effect of the combination of COMPOUND A and COMPOUND B on cell proliferation cells were plated in black 384-well microplates with clear bottom (Matrix/Thermo Scientific, Catalog number 4332) in 50 μL media per well at cell densities between 500 and 1250 cells/well (Table 1) and allowed to incubate at 37 degrees, 5% CO2 for 24 h. After 24 h one 384-well plate per cell line was prepared for cell counting by microscopy (see below) without receiving treatment (=‘baseline’). The other cell plates were treated by transferring 25 nL of the 2000× compound from drug master plates using an ATS acoustic liquid dispenser (ECD Biosystems) and resulting in a final 1× concentration. COMPOUND A was used over a final concentration range of 13 nM-10 μM, and COMPOUND B was used over a final concentration range of 13 nM-10 μM (7 1:3 dilution steps). […] Caspase 3/7 induction was measured as a proxy for apoptosis induced by the treatments. Cells were treated for 72 h to 96 h depending on their doubling time (Table 1), and Caspase 3/7 activation was measured every 24 h by microscopy using an InCell Analyzer 2000 (GE Healthcare) equipped with a 4× objective and FITC excitation/emission filters. […] All cells per well/treatment were captured in a single image by fluorescence microscopy using an InCell Analyzer 2000 (GE Healthcare) equipped with a 4× objective and DAPI excitation/emission filters. […]

Structure (SMILES)	Single agent growth inhibition, in words
Cc1nc(NC(=O)N2CCC[C@H]2C(N)=O)sc1-c1ccnc(C(C)(C)C(F)(F)F)c1 [COMPOUND A, (S)-Pyrrolidine-1,2-dicarboxylic acid 2-amide 1-({4-methyl-5-[2-(2,2,2-trifluoro-1,1-dimethyl-ethyl)-pyridin-4-yl]-thiazol-2-yl}-amide)]	inhibited the growth of 2 of the cell lines with micromolar IC50 values, and was active only at the highest dose (10 μM) in the 3 other lines
COc1cc2c(cc1OC(C)C)[C@H](c1ccc(Cl)cc1)N(c1ccc(N(C)C[C@H]3CC[C@H](N4CCN(C)C(=O)C4)CC3)cc1)C(=O)C2 [COMPOUND B, (S)-1-(4-Chloro-phenyl)-7-isopropoxy-6-methoxy-2-(4-{methyl-[4-(4-methyl-3-oxo-piperazin-1-yl)-trans-cyclohexylmethyl]-amino}-phenyl)-1,4-dihydro-2H-isoquinolin-3-one]	inhibited the growth of cell lines with sub-micromolar to micromolar IC50 values
